Common to all, as to assay type: cell-based
The target of one assay is T1, MR (Homo sapiens, UniProt P08235).
T1 construct: expressed in transfected cells; host or cells: 293T cells (ATCC)
T1 sequence (P08235 672-984): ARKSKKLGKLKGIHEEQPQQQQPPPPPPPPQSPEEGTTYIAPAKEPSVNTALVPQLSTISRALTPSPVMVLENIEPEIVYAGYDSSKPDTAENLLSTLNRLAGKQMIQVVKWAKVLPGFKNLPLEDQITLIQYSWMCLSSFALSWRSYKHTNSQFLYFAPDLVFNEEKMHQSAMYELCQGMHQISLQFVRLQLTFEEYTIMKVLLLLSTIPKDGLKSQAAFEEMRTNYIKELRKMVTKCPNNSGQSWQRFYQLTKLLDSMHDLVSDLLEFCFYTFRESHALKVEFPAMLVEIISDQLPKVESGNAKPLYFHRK
Kind of assay: Functional assay of mineralocorticoid receptor antagonism (mammalian two hybrid luciferase reporter, 293T cells). The settings on record: antagonism of aldosterone (0.4 nM)-induced MR activity. On the procedure:
The MR antagonist activity of the compounds is determined in a mammalian two hybrid reporter system. The N-terminus of MR (MR-NT, sequence coding amino acid 1-597) is fused to the activation domain of the VP16 gene. The ligand binding domain of MR (MR-LBD, sequence encoding amino acid 672-984) is fused to the DNA binding domain of the yeast Gal4 gene. The MR gene is cloned from a human kidney cDNA library with PCR.
The assay is performed in 384 well plates. Briefly, 293T cells (ATCC) are transfected with expression vectors for Gal4-MR-LBD and VP16-MR NT, and a luciferase reporter vector containing Gal4 binding sequence (pG5-Luc). Cells are plated in 384 well plates immediately after transfection (approximately 3×10^4 cells/well in 50 μl medium). The medium is supplemented with 3% charcoal-dextran treated fetal bovine serum (Hyclone). Twenty four hours after transfection, compounds prepared in DMSO are transferred to the cells. The cells are then stimulated with 0.4 nM final concentration of aldosterone (Acros) and incubated at 37° C. for another 24 hours before the luciferase activity is assayed with 20 μl of Bright-Glo (Promega) using a luminometer (CLIPR). The expression of luciferase is used as an indicator of aldosterone-induced MR trans-activation. Each compound is tested in duplicate with 12-concentration titration. IC50 values (defined as the concentration of test compound required to antagonize 50% of aldosterone-induced MR activity) are determined from the dose-response curve.

The target of a further assay is T2, AR (Homo sapiens, UniProt P10275, Q868H).
T2 construct: endogenous in cells; host or cells: MDA-kb2 cells (ATCC)
T2 sequence (P10275 1-920 Q868H): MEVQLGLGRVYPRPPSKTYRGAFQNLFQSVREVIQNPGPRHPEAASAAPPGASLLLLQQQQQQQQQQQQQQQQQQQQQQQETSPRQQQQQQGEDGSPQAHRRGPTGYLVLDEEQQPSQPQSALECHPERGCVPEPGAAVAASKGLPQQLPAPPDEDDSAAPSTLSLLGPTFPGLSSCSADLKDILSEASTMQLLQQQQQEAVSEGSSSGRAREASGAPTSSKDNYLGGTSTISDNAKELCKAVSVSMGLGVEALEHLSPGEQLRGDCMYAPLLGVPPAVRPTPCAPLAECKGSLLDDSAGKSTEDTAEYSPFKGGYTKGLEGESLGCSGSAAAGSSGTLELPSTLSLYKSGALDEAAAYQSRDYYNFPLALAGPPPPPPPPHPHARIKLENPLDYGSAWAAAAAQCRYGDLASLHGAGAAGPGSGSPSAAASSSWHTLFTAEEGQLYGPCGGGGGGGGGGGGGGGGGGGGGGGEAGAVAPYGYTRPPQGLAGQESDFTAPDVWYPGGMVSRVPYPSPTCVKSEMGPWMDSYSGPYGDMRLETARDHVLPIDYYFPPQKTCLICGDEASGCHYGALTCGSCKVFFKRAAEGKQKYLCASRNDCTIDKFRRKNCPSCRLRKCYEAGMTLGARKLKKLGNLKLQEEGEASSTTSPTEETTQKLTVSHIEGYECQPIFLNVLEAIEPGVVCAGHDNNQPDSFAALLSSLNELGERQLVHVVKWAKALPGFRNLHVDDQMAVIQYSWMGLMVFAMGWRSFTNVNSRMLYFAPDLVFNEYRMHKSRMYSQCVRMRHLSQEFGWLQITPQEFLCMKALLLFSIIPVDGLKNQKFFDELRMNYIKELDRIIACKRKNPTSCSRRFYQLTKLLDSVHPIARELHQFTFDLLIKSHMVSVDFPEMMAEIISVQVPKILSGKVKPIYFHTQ
The assay is described as follows: Functional assay of androgen receptor antagonism (MMTV luciferase reporter, MDA-kb2 cells). The following applies: antagonism of dihydrotestosterone (0.3 nM)-induced AR activity. On the procedure:
The AR antagonist activity of the compounds is determined with the MDA-Kb2 cell line (ATCC), which stably expresses the MMTV luciferase reporter. The MMTV promoter is a mouse mammary tumor virus promoter that contains androgen receptor response elements. […] Upon stimulation with AR ligands, such as dihydrotestosterone, the MMTV luciferase reporter can be activated.
The assay is performed in 384 well plates. Briefly, MDA-kb2 cells are plated in 384 well plates at a density of approximately 2.4×10^4 cells/well in 50 μl medium. The medium is supplemented with 5% charcoal-dextran treated fetal bovine serum (Hyclone). Twenty four hours later, compounds prepared in DMSO are transferred to the cells. The cells are then stimulated with 0.3 nM final concentration of dihydrotestosterone (Sigma) and incubated at 37° C. for another 24 hours before the luciferase activity is assayed with 20 μl of Bright-Glo (Promega) using a luminometer (CLIPR). The expression of luciferase is used as an indicator of dihydrotestosterone-induced AR trans-activation. Each compound is tested in duplicate with a 12-concentration titration. IC50 values (defined as the concentration of test compound required to antagonize 50% of dihydrotestosterone-induced AR activity) are determined from the dose-response curve.

A further assay has as its target T3, GR (Homo sapiens, UniProt P04150).
T3 construct: expressed in transfected cells; host or cells: COS-7 cells (ATCC)
T3 sequence (P04150 541-778 isoform P04150-3): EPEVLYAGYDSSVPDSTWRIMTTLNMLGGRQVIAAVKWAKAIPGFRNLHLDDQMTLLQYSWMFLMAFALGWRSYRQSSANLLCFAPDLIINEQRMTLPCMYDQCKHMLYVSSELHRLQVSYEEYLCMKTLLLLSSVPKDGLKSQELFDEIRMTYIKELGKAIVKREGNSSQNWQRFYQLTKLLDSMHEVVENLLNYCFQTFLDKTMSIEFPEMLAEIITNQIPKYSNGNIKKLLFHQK
Kind of assay: Functional assay of glucocorticoid receptor antagonism (Gal4-GR-LBD luciferase reporter, COS-7 cells). The settings on record: antagonism of dexamethasone (10 nM)-induced GR activity. On the procedure: The GR antagonist activity of the compounds is determined in a mammalian two hybrid reporter system. The ligand binding domain of GR (GR-LBD, sequence encoding amino acid 541-778) is fused to the DNA binding domain of the yeast Gal4 gene. The GR gene is cloned from a human lung cDNA library with PCR.
The assay is performed in 384 well plates: COS-7 cells (ATCC) are transfected with expression vectors for Gal-4-GR-LBD and a luciferase reporter vector containing Gal4 binding sequence (pG5-Luc). Cells are plated in 384 well plates immediately after transfection (approximately 8000 cells/well in 50 μl medium). The medium is supplemented with 3% charcoal-dextran treated fetal bovine serum (Hyclone). Twenty four hours after transfection, compounds prepared in DMSO are transferred to the cells. The cells are then stimulated with 10 nM final concentration of dexamethasone (Sigma) and incubated at 37° C. for another 24 hours before the luciferase activity is assayed with 20 μl of Bright-Glo (Promega) using a luminometer (CLIPR). The expression of luciferase is used as an indicator of dexamethasone-induced GR trans-activation. Each compound is tested in duplicate with a 12-concentration titration. IC50 values (defined as the concentration of test compound required to antagonize 50% of dexamethasone-induced GR activity) are determined from the dose-response curve.

Another assay deals with T4, PR (Homo sapiens, UniProt P06401).
T4 construct: endogenous in cells; host or cells: T-47D cells (ATCC)
T4 sequence (P06401 1-933): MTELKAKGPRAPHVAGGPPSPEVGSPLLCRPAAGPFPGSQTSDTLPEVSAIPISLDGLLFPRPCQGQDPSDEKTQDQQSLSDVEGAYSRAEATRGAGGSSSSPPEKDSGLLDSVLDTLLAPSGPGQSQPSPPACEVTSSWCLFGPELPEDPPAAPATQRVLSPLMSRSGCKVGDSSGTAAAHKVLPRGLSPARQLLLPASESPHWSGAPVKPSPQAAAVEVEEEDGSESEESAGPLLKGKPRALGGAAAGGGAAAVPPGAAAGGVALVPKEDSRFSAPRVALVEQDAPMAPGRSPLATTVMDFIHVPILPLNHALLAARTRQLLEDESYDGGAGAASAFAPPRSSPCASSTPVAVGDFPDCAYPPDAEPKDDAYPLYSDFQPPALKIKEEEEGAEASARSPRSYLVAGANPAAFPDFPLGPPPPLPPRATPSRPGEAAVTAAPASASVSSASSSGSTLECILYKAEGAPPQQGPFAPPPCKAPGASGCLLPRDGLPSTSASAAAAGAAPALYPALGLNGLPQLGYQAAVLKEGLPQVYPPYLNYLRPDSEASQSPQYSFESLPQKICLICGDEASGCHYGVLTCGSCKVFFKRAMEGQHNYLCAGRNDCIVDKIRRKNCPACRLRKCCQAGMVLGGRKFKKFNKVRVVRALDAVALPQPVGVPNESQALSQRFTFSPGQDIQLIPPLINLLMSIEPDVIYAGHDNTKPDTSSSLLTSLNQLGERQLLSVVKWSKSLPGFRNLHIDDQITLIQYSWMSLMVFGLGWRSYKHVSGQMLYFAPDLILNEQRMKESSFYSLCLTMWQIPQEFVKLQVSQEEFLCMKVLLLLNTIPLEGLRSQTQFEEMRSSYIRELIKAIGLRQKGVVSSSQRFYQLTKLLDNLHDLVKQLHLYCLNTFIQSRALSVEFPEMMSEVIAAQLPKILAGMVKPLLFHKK
The assay is described as follows: Functional assay of progesterone receptor antagonism (progesterone-induced alkaline phosphatase, T-47D cells). The following applies: antagonism of progesterone (3 nM)-induced PR activity. As to the method:
The PR antagonist activity of the compounds is determined by progesterone-induced alkaline phosphatase activity in the T-47D cell line (ATCC). In the T-47D breast cancer cells, progesterone specifically induces de novo synthesis of a membrane-associated alkaline phosphatase enzyme in a time and dose-dependent manner (Di Lorenzo et al., Cancer Research, 51: 4470-4475 (1991)). The alkaline phosphatase enzymatic activity can be measured with a chemiluminescent substrate, such as CSPD® (Applied Biosystems).
The assay is performed in 384 well plates. Briefly, T-47D cells are plated in 384 well plates at a density of approximately 2.5×10^4 cells/well in 50 μl medium supplemented with 10% fetal bovine serum. Twenty four hours later, the medium is aspirated. New medium that is free of phenol red and serum is added to the cells. Compounds prepared in DMSO are transferred to the cells. The cells are then stimulated with 3 nM final concentration of progesterone (Sigma) and incubated at 37° C. for another 24 hours before the alkaline phosphatase is assayed with 25 μl of CSPD® (Applied Biosystems) using a luminometer (CLIPR). The expression of alkaline phosphatase is used as an indicator of progesterone-induced PR trans-activation. Each compound is tested in duplicate with a 12-concentration titration. […]

Among the data in patent US20090298872A1, “COMPOUNDS AND COMPOSITIONS AS MODULATORS OF STEROIDAL RECEPTORS AND CALCIUM CHANNEL ACTIVITIES” (IRM LLC, priority 2004, published 2009) are IC50 values, retold here.

On to `COc1ccccc1NC(=O)C1=C(C)NC(SC)=C(C#N)C1c1ccccc1Br` (stereo not shown) [Compound 14, 2-methylthio-3-cyano-4-(2-bromophenyl)-5-(2-methoxyphenyl)carbamoyl-6-methyl-1,4-dihydro-pyridine], for which the IC50 against MR was found to be 8 nM; against AR, 2600 nM.

As to `COC(=O)C1=C(C)NC(C)=C(C#N)C1c1ccc(F)cc1Cl` (stereo not shown) [Example 207, 5-methyl-2,6-dimethyl-3-cyano-4-(2-chloro-4-fluorophenyl)-1,4-dihydro-pyridine-5-carboxylate], the half-maximal inhibitory concentration (IC50) at MR came to 41 nM; on GR it was 6850 nM; against PR, 478 nM; against AR, 2860 nM.

For the compound `COCC1=C(C(=O)OC(C)C)C(c2ccc(F)cc2Br)C(C#N)=C(C)N1` (stereo not shown) [Compound 96, 5-isopropyl-2-methyl-3-cyano-4-(2-bromo-4-fluorophenyl)-6-(methoxymethyl)-1,4-dihydro-pyridine-5-carboxylate], the IC50 on MR was determined as 9 nM; against GR, 3100 nM; against PR, 2300 nM; on AR, 39800 nM.
